PMC7998250, “Temperate Zone Plant Natural Products—A Novel Resource for Activity against Tropical Parasitic Diseases” (Pharmaceuticals, 2021)
Read-outs that look alike come from different tables or passages of the source.

Experiments:
[1] = tested on: L. mexicana axenic amastigotes; assay: Initial screen, L. mexicana axenic amastigotes, Alamar Blue; type: cell-based, Leishmania mexicana; details: for initial hit against L. mexicana: growth inhibited by ≥80%; for activity at 2 µM / inhibition of growth at 2 µM: Leishmania mexicana; for inhibition of growth at 2 µM: read-out: initial hit L.m
In short: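 Purified temperate plant natural products from a commercial library (1 mg/mL in DMSO) were tested against Leishmania mexicana axenic amastigotes at a final 2 μM. Parasites were seeded at 1 × 10^6 cells/mL in 96-well plates containing 200 μL culture and incubated 72 h. Growth was measured by Alamar Blue and normalised to DMSO controls (1% v/v), with triplicates over two biological replicates (n = 6).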

[2] = tested on: T. evansi bloodstream form; assay: Initial screen, T. evansi bloodstream form, Alamar Blue; type: cell-based, Trypanosoma evansi; details: for activity at 1 µM / inhibition of growth at 1 µM: Trypanosoma evansi; for inhibition of growth at 1 µM: read-out: initial hit T.e
In short: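 Bloodstream-form T. evansi Antat 3/3 and T. brucei Lister 427 were grown in HMI-11 with 10% FBS at 37 °C. Parasites were plated at 1×10^5 cells/mL with compound at 1 μM (T. evansi) or 2 μM (T. brucei) for 48 h, and growth was read by Alamar Blue relative to 1% DMSO controls (n = 6).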

[3] = in vitro; details: human
In short: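 Human hepatoma cells seeded at 1 × 10^5 cells/mL with two-fold serial compound dilutions, incubated 48 h at 37 °C, 5% CO2 in DMEM/10% FBS. Viability read by Alamar Blue. CC50 estimated from viability normalised to untreated controls versus log concentration.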

[4] = read-out: % growth L. mexicana, mean % growth compared to a normalised control with same concentration of DMSO solvent, initial screen
[5] = mean % growth compared to a normalised control with same concentration of DMSO solvent, initial screen, read-out: % growth T. evansi
[6] = initial screen, compared to a normalised control with same concentration of DMSO solvent
[7] = read-out: mean % growth, L. mexicana, initial screen, compared to a normalised control with same concentration of DMSO solvent
[8] = read-out: mean % growth, T. evansi, initial screen, compared to a normalised control with same concentration of DMSO solvent

| SMILES | initial hit against L. mexicana ([1]; 2 μM) | activity at 2 µM [1, 4] [%] | inhibition of growth at 2 µM ([1]; 2 μM, x = initial hit) [%] | activity at 1 µM [2, 5] [%] | CC50 at 48 h ([3]; pH 7, HepG2 CC50) [µM] | activity at 1 µM ([2]; read-out: % growth T. evansi, mean % growth compared to a normalised control with same concentration of DMSO solvent, initial screen) [%] | inhibition of growth at 1 µM [2] [%] | CC50 at 48 h ([3]; pH 7, HepG2 CC50, 48 h) [µM] | mean % growth, L. mexicana [1, 6] [%] | mean % growth, T. evansi [2, 6] [%] | inhibition of growth at 2 µM [1] [%] | activity at 2 µM [1, 7] [%] | activity at 1 µM [2, 8] [%] | activity at 1 µM ([2]; initial screen, compared to a normalised control with same concentration of DMSO solvent, read-out: mean % growth, T. evansi) [%] |
| --- | --- | --- | --- | --- | --- | --- | --- | --- | --- | --- | --- | --- | --- | --- |
| CC1=CC(O)(CC(C)C2(C)CC=C3C4=CCC5C(C)(C)C(O)CCC5(C)C4CCC32C)OC1=O (stereo not drawn) [Compound 700022] | initial hits | 0.54 | > 80 | 70.8 | 28 | – | – | – | – | – | – | – | – | – |
| CC1OC(OC2C(OC(=O)C3CC[C@@H]4[C@H](C3)OC3(CC(OC(=O)/C=C/c5ccccc5)[C@@H](C)CO3)C43CO3)OC(CO)C(O)C2O)C(O)C(O)C1O (stereo partly drawn) [Compound 700042] | – | 79.1 | – | – | – | 40.2 | > 50 | 2.5 | – | – | – | – | – | – |
| CC1=CC(O)(CC(C)C2(C)CCC3C4=CCC5C(C)(CCC(O)C5(C)C)C4=CCC32C)OC1=O (stereo not drawn) [Compound 700107] | initial hits | 8.1 | > 80 | 66.5 | 45 | – | – | – | – | – | – | – | – | – |
| CC1=CC(O)(CC(C)C2(C)CC=C3C4=CCC5C(C)(C)C(=O)CCC5(C)C4CCC32C)OC1=O (stereo not drawn) [Compound 700136] | initial hits | -0.4 | > 80 | 76.2 | 28 | – | – | – | – | – | – | – | – | – |
| C/C(=C/C(=O)CC(C)C1CCC2(C)C3=CCC4C(C)(C)C(=O)CCC4(C)C3CCC12C)C(=O)O (stereo not drawn) [Compound 700240] | initial hits | -10.1 | > 80 | 120 | 47 | – | – | – | – | – | – | – | – | – |
| C=C1C(=O)OC2CC(C)C3C=CC(=O)C3(C)C(OC(C)=O)C12 (stereo not drawn) [Compound 701155] | initial hits | – | – | – | – | – | > 50 | – | -0.28 | 1.0 | – | – | – | – |
| C=C1C(=O)OC2CC(C)C3C=CC(=O)C3(C)C(OC(=O)C(C)C)C12 (stereo not drawn) [Compound 701157] | initial hits | – | – | – | – | – | > 50 | 1.3 | – | – | > 80 | 0.07 | -4.3 | – |
| C=C1C(=O)OC2CC(C)C3C=CC(=O)C3(C)C(OC(=O)C(C)CC)C12 (stereo not drawn) [Compound 701158] | initial hits | – | – | – | – | – | > 50 | 0.8 | – | – | > 80 | -1.7 | 0.454 | – |
| C=C1C(=O)OC2CC(C)C3C(OC)CC(=O)C3(C)C(OC(=O)C(C)CC)C12 (stereo not drawn) [Compound 701159] | initial hits | – | > 80 | – | – | – | – | 3.4 | – | – | – | 1.5 | – | 82 |
